The values below come from patent US11458121B2, “Therapeutic compounds and methods to treat infection” (priority 2017, dated 2022).

Assay [1] has as its system P. aeruginosa PAO1. Put plainly: Intrinsic MIC assay (CLSI broth microdilution). The assay is classed as cell-based. The settings on record: Pseudomonas aeruginosa, read-out: Antibiotic Activity Against P. aeruginosa Intrinsic MIC. The source says:
As used herein, the term “minimum inhibitory concentration (MIC)” refers to the lowest concentration of a compound (e.g., an antibiotic) that prevents visible growth of a bacterium. Assays for measuring the MIC of a compound are known in the art, for example, as described herein. As used herein, the term “intrinsic MIC” refers the MIC of a compound (e.g., an antibiotic) for the particular bacterial species that has not been pre-exposed to the compound. Intrinsic MIC Assays MIC assays were conducted in accordance with Clinical and Laboratory Standards Institute (CLSI) guidelines for broth microdilution. A 96-well plate containing cation-adjusted Mueller-Hinton (CAMH broth with 2-fold serial dilution of compounds was inoculated with log-phase bacterial at 5×10^5 CFU/mL. The final volume in each well was 100 μL. Each compound was tested in duplicate. The microtiter plates were incubated in an aerobic environment for 18 hours at 37° C. Then the bacterial growth was tested by reading the plate with a VersaMax plate reader (Molecular Devices, Inc.) at 600 nm. The MIC was defined as the lowest compound concentration that inhibited 90% of bacteria growth. The intrinsic MIC of the experimental EPIs was tested with the method described. […] The following Gram-negative bacterial strains were included in these assays: Pseudomonas aeruginosa PAO1

The subject of assay [2] is P. aeruginosa PAO1. Put plainly: MIC assay in the presence of a bacterial efflux pump inhibitor (EPI). The class given is cell-based, Pseudomonas aeruginosa. The procedure: The ability of a compound to produce an antibiotic effect can be determined using a method as described in Example 42. […] MIC assays were conducted in accordance with Clinical and Laboratory Standards Institute (CLSI) guidelines for broth microdilution. A 96-well plate containing cation-adjusted Mueller-Hinton (CAMH broth with 2-fold serial dilution of compounds was inoculated with log-phase bacterial at 5×10^5 CFU/mL. The final volume in each well was 100 μL. Each compound was tested in duplicate. The microtiter plates were incubated in an aerobic environment for 18 hours at 37° C. Then the bacterial growth was tested by reading the plate with a VersaMax plate reader (Molecular Devices, Inc.) at 600 nm. The MIC was defined as the lowest compound concentration that inhibited 90% of bacteria growth. MIC Assays in the Presence of a Bacterial Efflux Inhibitor The EPI assay for the purposes of these studies represents a MIC assay in which the MIC of the antibiotic against the bacteria is tested in the presence of an experimental efflux pump inhibitor (EPI). The highest concentration of the EPI present in the assay typically is ½ of the intrinsic MIC of the compound. […] Using serial dilutions of the EPI, its enhancement of antibiotic activity was then evaluated. The relative EPI activity was decided by comparing the MIC of the antibiotic in the presence of the EPI compound with the intrinsic MIC of the antibiotic alone. For comparative purposes, we generally used EPIs at concentration of 12.5 and 6.25 μg/ml against varying concentration of our test antibiotic.

Assay [3] concerns E. coli 25922. Put plainly: Intrinsic MIC assay (CLSI broth microdilution). The following applies: read-out: Antibiotic Activity Against E. coli Intrinsic MIC. The class given is cell-based, Escherichia coli. The source says: As used herein, the term “minimum inhibitory concentration (MIC)” refers to the lowest concentration of a compound (e.g., an antibiotic) that prevents visible growth of a bacterium. Assays for measuring the MIC of a compound are known in the art, for example, as described herein. As used herein, the term “intrinsic MIC” refers the MIC of a compound (e.g., an antibiotic) for the particular bacterial species that has not been pre-exposed to the compound. Intrinsic MIC Assays MIC assays were conducted in accordance with Clinical and Laboratory Standards Institute (CLSI) guidelines for broth microdilution. A 96-well plate containing cation-adjusted Mueller-Hinton (CAMH broth with 2-fold serial dilution of compounds was inoculated with log-phase bacterial at 5×10^5 CFU/mL. The final volume in each well was 100 μL. Each compound was tested in duplicate. The microtiter plates were incubated in an aerobic environment for 18 hours at 37° C. Then the bacterial growth was tested by reading the plate with a VersaMax plate reader (Molecular Devices, Inc.) at 600 nm. The MIC was defined as the lowest compound concentration that inhibited 90% of bacteria growth. The intrinsic MIC of the experimental EPIs was tested with the method described. […] The following Gram-negative bacterial strains were included in these assays: Escherichia coli ATCC 25922

Where [4] appears, read: 18 h, P. aeruginosa PAO1, compound alone, without EPI, MIC = lowest concentration inhibiting 90% of growth.
Setting [5] is: P. aeruginosa PAO1, fold enhancement with 12.5 ug/ml EPI.
Setting [6] is: P. aeruginosa PAO1, with 12.5 ug/ml of EPI (2S,4R)-4-(ammoniomethyl)-2-((6-(4-fluorophenyl)-1H-indole-2-carboxamido)methyl)pyrrolidin-1-ium.
The mark [7] stands for this setting: Escherichia coli, 18 h, E. coli 25922, compound alone, without EPI.

What is called MIC is the lowest concentration that inhibits growth of the organism.

Values after ≈ are worked out from the molar mass of the structure shown. Like-named read-outs stand apart in the source and are kept apart here.

Consider `NC1CCCc2c1[nH]c1ccc(C(F)(F)F)cc21` (stereo not drawn) [Example 14, 6-(Trifluoromethyl)-2,3,4,9-tetrahydro-1H-carbazol-1-amine], for which the MIC in assay [1] (setting [4]) and in assay [3] (setting [7]) was 64 µg/mL (≈ 252 µM) throughout. Moreover, in assay [2] (setting [5]), the “Enhancement (intrinsic MIC versus MIC with EPI)” value is “(32x)”. Further, in assay [2] (setting [6]), the “Antibiotic Activity Against P. aeruginosa MIC with EPI” value worked out at 2 µg/mL.
As to `CC(=O)NC1CCCc2c1[nH]c1ccc(Br)cc21` (stereo not drawn) [Example 8, N-(6-Bromo-2,3,4,9-tetrahydro-1H-carbazol-1-yl)acetamide], the minimal inhibitory concentration (MIC) in assay [1] (setting [4]) and in assay [3] (setting [7]) was > 256 µg/mL throughout. In addition, the “Enhancement (intrinsic MIC versus MIC with EPI)” value in assay [2] (setting [5]) is listed as “(4x)”. Moreover, the “Antibiotic Activity Against P. aeruginosa MIC with EPI” value in assay [2] (setting [6]) was >64 µg/mL.
Take `CC(C)C1CCC(N)c2[nH]c3ccc(Br)cc3c21.Cl` (stereo not drawn) [Example 25, 6-Bromo-4-isopropyl-2,3,4,9-tetrahydro-1H-carbazol-1-amine Hydrogen Chloride Salt]: the minimum inhibitory concentration (MIC) in assay [1] (PAO1, 18 h) is 64 µg/mL. Also, in assay [2], the “Antibiotic Activity Against P. aeruginosa MIC with EPI” value worked out at 16 µg/mL and the “Enhancement (intrinsic MIC versus MIC with EPI)” value was “(4x)”. Besides, in assay [3] (Escherichia coli, 25922, 18 h), the minimal inhibitory concentration (MIC) was found to be 8 µg/mL.
